Results published in PubChem BioAssay AID248 (DTP/NCI, 2004).
“And” between values parts separate entries of the source, which are not always exact repeats. Identical values can stand only once. Inconclusive results and toxic doses are left out. No stated cut-off is given here; in the data, active means T/C of 150% or more; inactive means T/C below 125%.

Test system: L1210 leukemia ip in BDF1 mice, survival T/C
Experiment: NCI In Vivo Anticancer Drug Screen. Data for tumor model L1210 Leukemia (intraperitoneal) in B6D2F1 (BDF1) mice
Conditions: endpoint: mean survival time, higher = longer survival
In short: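 Antitumor effect is assessed in tumor-bearing animals. Survival in the compound arm is compared with a vehicle-dosed control arm and expressed as their quotient.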

[1] = dose: 100.0 mg/kg/injection, schedule: Q01DX009 (ip), vehicle: saline with Tween-80
[2] = dose: 100.0 mg/kg/injection, schedule: Q04DX003 (ip), vehicle: saline with Tween-80
[3] = dose: 400.0 mg/kg/injection, schedule: Q04DX003 (ip), vehicle: saline with Tween-80
[4] = dose: 100.0 mg/kg/injection, schedule: Q04DX003 (ip), vehicle: saline
[5] = dose: 200.0 mg/kg/injection, schedule: Q04DX003 (ip), vehicle: saline
[6] = dose: 400.0 mg/kg/injection, schedule: Q04DX003 (ip), vehicle: saline
[7] = dose: 25.0 mg/kg/injection, schedule: Q04DX003 (ip), vehicle: saline with Tween-80
[8] = dose: 50.0 mg/kg/injection, schedule: Q04DX003 (ip), vehicle: saline with Tween-80
[9] = dose: 100.0 mg/kg/injection, schedule: Q04DX002 (ip), vehicle: Klucel (hydroxypropylcellulose) (HPC)
[10] = dose: 200.0 mg/kg/injection, schedule: Q04DX002 (ip), vehicle: Klucel (hydroxypropylcellulose) (HPC)
[11] = dose: 400.0 mg/kg/injection, schedule: Q04DX002 (ip), vehicle: Klucel (hydroxypropylcellulose) (HPC)
[12] = dose: 200.0 mg/kg/injection, schedule: Q04DX003 (ip), vehicle: saline with Tween-80
[13] = dose: 100.0 mg/kg/injection, schedule: Q04DX003 (ip), vehicle: Klucel (hydroxypropylcellulose) (HPC)
[14] = dose: 200.0 mg/kg/injection, schedule: Q04DX003 (ip), vehicle: Klucel (hydroxypropylcellulose) (HPC)
[15] = dose: 100.0 mg/kg/injection, schedule: Q01DX001 (ip), vehicle: saline
[16] = dose: 200.0 mg/kg/injection, schedule: Q01DX001 (ip), vehicle: saline
[17] = dose: 400.0 mg/kg/injection, schedule: Q01DX001 (ip), vehicle: saline
[18] = dose: 100.0 mg/kg/injection, schedule: Q01DX009 (ip), vehicle: Klucel (hydroxypropylcellulose) (HPC)
[19] = dose: 200.0 mg/kg/injection, schedule: Q01DX009 (ip), vehicle: Klucel (hydroxypropylcellulose) (HPC)
[20] = dose: 400.0 mg/kg/injection, schedule: Q01DX009 (ip), vehicle: Klucel (hydroxypropylcellulose) (HPC)
[21] = dose: 400.0 mg/kg/injection, schedule: Q04DX003 (ip), vehicle: Klucel (hydroxypropylcellulose) (HPC)
[22] = dose: 100.0 mg/kg/injection, schedule: Q01DX009 (ip), vehicle: saline
[23] = dose: 200.0 mg/kg/injection, schedule: Q01DX009 (ip), vehicle: saline
[24] = dose: 400.0 mg/kg/injection, schedule: Q01DX009 (ip), vehicle: saline

Measured: T/C

CCOC(=O)c1ccc(N(CC(O)CN=[N+]=[N-])S(=O)(=O)c2ccc(C)cc2)cc1 (stereo not given)
inactive: dose: 100.0 mg/kg/injection, schedule: Q01DX001 (ip), vehicle: saline with Tween-80 101 % of control | [1] 102 % of control and 107 % of control | dose: 100.0 mg/kg/injection, schedule: Q04DX002 (ip), vehicle: saline with Tween-80 98 % of control | [2] 88 % of control | dose: 200.0 mg/kg/injection, schedule: Q01DX001 (ip), vehicle: saline with Tween-80 101 % of control | dose: 200.0 mg/kg/injection, schedule: Q01DX009 (ip), vehicle: saline with Tween-80 95 % of control and 100 % of control | dose: 200.0 mg/kg/injection, schedule: Q04DX002 (ip), vehicle: saline with Tween-80 93 % of control and 89 % of control | dose: 400.0 mg/kg/injection, schedule: Q01DX001 (ip), vehicle: saline with Tween-80 104 % of control | dose: 400.0 mg/kg/injection, schedule: Q01DX009 (ip), vehicle: saline with Tween-80 104 % of control and 91 % of control | dose: 400.0 mg/kg/injection, schedule: Q04DX002 (ip), vehicle: saline with Tween-80 96 % of control and 89 % of control | [3] 88 % of control

CCOC(=O)C(=CN1CCCCCC1)C(=O)OCC
inactive: [4] 106 % of control | [5] 97 % of control | [6] 89 % of control

O=C(NCCF)NC1CS(=O)(=O)CS(=O)(=O)C1
inactive: dose: 9.5 mg/kg/injection, schedule: Q01DX001 (ip), vehicle: other 100 % of control | dose: 19.0 mg/kg/injection, schedule: Q01DX001 (ip), vehicle: other 105 % of control | dose: 38.0 mg/kg/injection, schedule: Q01DX001 (ip), vehicle: other 96 % of control

COc1cccc(/C=C/[N+](=O)[O-])c1OCc1ccccc1
inactive: dose: 12.5 mg/kg/injection, schedule: Q04DX003 (ip), vehicle: saline with Tween-80 117 % of control | [7] 95 % of control | [8] 111 % of control

CCCCCCCCCCCC(=O)NC(=S)Nc1ccc(N(C)C)cc1
inactive: [9] 93 % of control | [10] 108 % of control | [11] 90 % of control

Cn1c2nc3ccccc3c-2nc2ccccc21
inactive: [2] 91 % of control | [12] 94 % of control | [3] 86 % of control

CC(=O)NNc1ccnc(SCc2ccccc2)n1
inactive: dose: 100.0 mg/kg/injection, schedule: Q04DX003 (ip), vehicle: gum acacia 94 % of control | dose: 200.0 mg/kg/injection, schedule: Q04DX003 (ip), vehicle: gum acacia 87 % of control | dose: 400.0 mg/kg/injection, schedule: Q04DX003 (ip), vehicle: gum acacia 94 % of control

CCOC(=O)c1cnn2c(SC)ncnc12
inactive: [7] 102 % of control | dose: 50.0 mg/kg/injection, schedule: Q01DX009 (ip), vehicle: saline with Tween-80 102 % of control | [8] 104 % of control | [1] 91 % of control | [2] 107 % of control

O=[N+]([O-])c1cc([N+](=O)[O-])c(Cl)cc1Cl
inactive: dose: 3.13 mg/kg/injection, schedule: Q01DX009 (ip), vehicle: Klucel (hydroxypropylcellulose) (HPC) 101 % of control | dose: 6.25 mg/kg/injection, schedule: Q01DX009 (ip), vehicle: Klucel (hydroxypropylcellulose) (HPC) 106 % of control | dose: 12.5 mg/kg/injection, schedule: Q01DX009 (ip), vehicle: Klucel (hydroxypropylcellulose) (HPC) 106 % of control | [13] 96 % of control | [14] 89 % of control

CCOC(=O)CS(C)(=O)=O
inactive: [15] 98 % of control | [16] 93 % of control | [17] 94 % of control

Cc1cc(OC(=O)Nc2cc(Cl)ccc2C)c(C(C)C)cc1Cl
inactive: dose: 100.0 mg/kg/injection, schedule: Q01DX001 (ip), vehicle: Klucel (hydroxypropylcellulose) (HPC) 90 % of control | [18] 102 % of control and 88 % of control | [9] 96 % of control | [13] 103 % of control | dose: 200.0 mg/kg/injection, schedule: Q01DX001 (ip), vehicle: Klucel (hydroxypropylcellulose) (HPC) 91 % of control | [19] 97 % of control | [10] 94 % of control | [14] 94 % of control | dose: 400.0 mg/kg/injection, schedule: Q01DX001 (ip), vehicle: Klucel (hydroxypropylcellulose) (HPC) 88 % of control | [20] 94 % of control and 86 % of control | [11] 91 % of control | [21] 96 % of control

O=Cc1sc2cc[nH]c2c1O
inactive: [2] 100 % of control | [12] 97 % of control | [3] 94 % of control

C/C=C\S(=O)(=O)c1ccccc1
inactive: dose: 25.0 mg/kg/injection, schedule: Q04DX002 (ip), vehicle: Klucel (hydroxypropylcellulose) (HPC) 98 % of control | dose: 50.0 mg/kg/injection, schedule: Q04DX002 (ip), vehicle: Klucel (hydroxypropylcellulose) (HPC) 98 % of control | [9] 105 % of control | [10] 89 % of control

CCOC(=O)C(C(=O)OCC)=C(C#N)c1c[nH]c2ccccc12
inactive: [18] 103 % of control | [13] 104 % of control | [19] 96 % of control | [14] 95 % of control | [20] 92 % of control | [21] 96 % of control

CCCN
inactive: [15] 107 % of control | [22] 106 % of control and 107 % of control | dose: 100.0 mg/kg/injection, schedule: Q04DX002 (ip), vehicle: saline 103 % of control and 108 % of control | [4] 103 % of control | [16] 100 % of control | [23] 93 % of control and 109 % of control | dose: 200.0 mg/kg/injection, schedule: Q04DX002 (ip), vehicle: saline 99 % of control and 106 % of control | [5] 96 % of control | [17] 105 % of control | [24] 111 % of control and 117 % of control | dose: 400.0 mg/kg/injection, schedule: Q04DX002 (ip), vehicle: saline 105 % of control and 108 % of control | [6] 96 % of control

O=C(NC1OCC(O)C(O)C1O)Oc1ccccc1 (stereo not given)
inactive: [22] 108 % of control | dose: 100.0 mg/kg/injection, schedule: Q04DX003 (ip), vehicle: water 97 % of control | [23] 97 % of control | dose: 200.0 mg/kg/injection, schedule: Q04DX003 (ip), vehicle: water 96 % of control | [24] 101 % of control | dose: 400.0 mg/kg/injection, schedule: Q04DX003 (ip), vehicle: water 100 % of control
